# Reference: the supplement of paper PMC10307832
# Assays:
# Assay in all cases: relative viability (nuclei count vs DMSO), 5 days (fraction); higher = more cells survive
# [1] = compound: CN(C/C=C/C1=CC=C(C=C1)Cl)CC2=CC=CC=C2N(CCO)S(=O)(=O)C3=CC=C(C=C3)OC [KN-93]
# How it was run: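 Viability is treated-well nuclei as a fraction of vehicle-well nuclei, reported as the median across plates. Before counting, lung cancer cell lines were kept overnight at 37 °C in 1536-well plates, pinned with five √10-spaced library-drug doses on vehicle-anchored plates, and left 5 days without medium change, then fixed, permeabilised and Hoechst-stained in one step, imaged at 4× and counted by MetaXpress. A plate passed only if control CV was below 25% and at least one doubling occurred.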
# [2] = compound: CN(C/C=C/C1=CC=C(C=C1)Cl)CC2=CC=CC=C2N(CCO)S(=O)(=O)C3=CC=C(C=C3)OC [KN-93] + CC(=O)Nc1cccc(-n2c(=O)n(C3CC3)c(=O)c3c(Nc4ccc(I)cc4F)n(C)c(=O)c(C)c32)c1 [Trametinib] (partner 0.02 µM)
# How it was run: (§1)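 Nuclei were stained with Hoechst during a one-step fixation (final 0.05% Triton X-100, 1% formaldehyde, 1 ug/ml Hoechst) carried out 5 days after dosing, then counted on 4× images. The cells, lung cancer lines in 1536-well plates, had been dosed by pin tool the day after seeding with one drug alone or a fixed anchor-drug dose plus five library-drug doses (not always all listed) in √10 steps. Relative viability is the nuclei count in treated wells divided by that in vehicle wells, and each value is the median of duplicate plates.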
# [3] = compound: CN(C/C=C/C1=CC=C(C=C1)Cl)CC2=CC=CC=C2N(CCO)S(=O)(=O)C3=CC=C(C=C3)OC [KN-93] + CC(=O)c1c(C)c2cnc(Nc3ccc(N4CCNCC4)cn3)nc2n(C2CCCC2)c1=O [Palbociclib] (partner 0.5 µM)
# How it was run: as §1
# [4] = compound: CN(C/C=C/C1=CC=C(C=C1)Cl)CC2=CC=CC=C2N(CCO)S(=O)(=O)C3=CC=C(C=C3)OC [KN-93] + CCNC(=O)c1noc(-c2cc(C(C)C)c(O)cc2O)c1-c1ccc(CN2CCOCC2)cc1 [Luminespib] (partner 0.01 µM)
# How it was run: as §1
# [5] = compound: CN(C/C=C/C1=CC=C(C=C1)Cl)CC2=CC=CC=C2N(CCO)S(=O)(=O)C3=CC=C(C=C3)OC [KN-93] + COc1cc2c(Oc3ccc(NC(=O)C4(C(=O)Nc5ccc(F)cc5)CC4)cc3F)ccnc2cc1OCCCN1CCOCC1 [Foretinib] (partner 0.25 µM)
# How it was run: as §1
# [6] = compound: CN(C/C=C/C1=CC=C(C=C1)Cl)CC2=CC=CC=C2N(CCO)S(=O)(=O)C3=CC=C(C=C3)OC [KN-93] + COc1cccc2cc(-c3nc([C@H]4CC[C@H](C(=O)O)CC4)n4ncnc(N)c34)[nH]c12 [OSI-027] (partner 0.5 µM)
# How it was run: as §1
# [7] = compound: CN(C/C=C/C1=CC=C(C=C1)Cl)CC2=CC=CC=C2N(CCO)S(=O)(=O)C3=CC=C(C=C3)OC [KN-93] + Cc1cc(Nc2cc(N3CCN(C)CC3)nc(Sc3ccc(NC(=O)C4CC4)cc3)n2)n[nH]1 [Tozasertib] (partner 0.1 µM)
# How it was run: as §1
# [8] = compound: CN(C/C=C/C1=CC=C(C=C1)Cl)CC2=CC=CC=C2N(CCO)S(=O)(=O)C3=CC=C(C=C3)OC [KN-93] + Cc1nc(Nc2ncc(C(=O)Nc3c(C)cccc3Cl)s2)cc(N2CCN(CCO)CC2)n1 [Dasatinib] (partner 0.075 µM)
# How it was run: as §1
# [9] = compound: CN(C/C=C/C1=CC=C(C=C1)Cl)CC2=CC=CC=C2N(CCO)S(=O)(=O)C3=CC=C(C=C3)OC [KN-93] + N=C(N)NC(=N)NCCc1ccccc1 [Phenformin] (partner 250 µM)
# How it was run: as §1
# [10] = compound: CN(C/C=C/C1=CC=C(C=C1)Cl)CC2=CC=CC=C2N(CCO)S(=O)(=O)C3=CC=C(C=C3)OC [KN-93] + NC(=O)Nc1cc(-c2cccc(F)c2)sc1C(=O)N[C@H]1CCCNC1 [AZD7762] (partner 0.2 µM)
# How it was run: as §1
# [11] = compound: CN(C/C=C/C1=CC=C(C=C1)Cl)CC2=CC=CC=C2N(CCO)S(=O)(=O)C3=CC=C(C=C3)OC [KN-93] + Nc1nc2[nH]cc(CCc3ccc(C(=O)N[C@@H](CCC(=O)O)C(=O)O)cc3)c2c(=O)[nH]1 [Pemetrexed] (partner 0.2 µM)
# How it was run: as §1
# [12] = compound: CN(C/C=C/C1=CC=C(C=C1)Cl)CC2=CC=CC=C2N(CCO)S(=O)(=O)C3=CC=C(C=C3)OC [KN-93] + Nc1ncn([C@H]2C[C@H](O)[C@@H](CO)O2)c(=O)n1 [Decitabine] (partner 2 µM)
# How it was run: as §1
# [13] = compound: CN(C/C=C/C1=CC=C(C=C1)Cl)CC2=CC=CC=C2N(CCO)S(=O)(=O)C3=CC=C(C=C3)OC [KN-93] + O=C(CCCCCCC(=O)Nc1ccccc1)NO [Vorinostat] (partner 1 µM)
# How it was run: as §1
# [14] = compound: CN(C/C=C/C1=CC=C(C=C1)Cl)CC2=CC=CC=C2N(CCO)S(=O)(=O)C3=CC=C(C=C3)OC [KN-93] + O=C(c1cc(Cc2n[nH]c(=O)c3ccccc23)ccc1F)N1CCN(C(=O)C2CC2)CC1 [Olaparib] (partner 8 µM)
# How it was run: as §1
cell line,measurement,setting,value
NCI-H2342,relative viability,[1]; 0.08 µM,0.911
same,relative viability,[1]; 0.253 µM,0.959
same,relative viability,[1]; 2.53 µM,0.977
same,relative viability,[1]; 8 µM,0.818
same,relative viability,[2]; first compound 0.08 µM,0.744
same,relative viability,[2]; first compound 0.253 µM,0.687
same,relative viability,[2]; first compound 2.53 µM,0.94
same,relative viability,[2]; first compound 8 µM,0.78
same,relative viability,[3]; first compound 0.08 µM,0.538
same,relative viability,[3]; first compound 0.253 µM,0.54
same,relative viability,[3]; first compound 2.53 µM,0.565
same,relative viability,[3]; first compound 8 µM,0.507
same,relative viability,[4]; first compound 0.08 µM,0.623
same,relative viability,[4]; first compound 0.253 µM,0.686
same,relative viability,[4]; first compound 2.53 µM,0.913
same,relative viability,[4]; first compound 8 µM,0.634
same,relative viability,[5]; first compound 0.08 µM,0.918
same,relative viability,[5]; first compound 0.253 µM,0.962
same,relative viability,[5]; first compound 2.53 µM,1.06
same,relative viability,[5]; first compound 8 µM,0.902
same,relative viability,[6]; first compound 0.08 µM,0.587
same,relative viability,[6]; first compound 0.253 µM,0.62
same,relative viability,[6]; first compound 2.53 µM,0.625
same,relative viability,[6]; first compound 8 µM,0.582
same,relative viability,[7]; first compound 0.08 µM,0.471
same,relative viability,[7]; first compound 0.253 µM,0.492
same,relative viability,[7]; first compound 2.53 µM,0.556
same,relative viability,[7]; first compound 8 µM,0.421
same,relative viability,[8]; first compound 0.08 µM,0.277
same,relative viability,[8]; first compound 0.253 µM,0.327
same,relative viability,[8]; first compound 2.53 µM,0.354
same,relative viability,[8]; first compound 8 µM,0.277
same,relative viability,[9]; first compound 0.08 µM,0.536
same,relative viability,[9]; first compound 0.253 µM,0.62
same,relative viability,[9]; first compound 2.53 µM,0.671
same,relative viability,[9]; first compound 8 µM,0.487
same,relative viability,[10]; first compound 0.08 µM,0.472
same,relative viability,[10]; first compound 0.253 µM,0.467
same,relative viability,[10]; first compound 2.53 µM,0.539
same,relative viability,[10]; first compound 8 µM,0.404
same,relative viability,[11]; first compound 0.08 µM,0.735
same,relative viability,[11]; first compound 0.253 µM,0.679
same,relative viability,[11]; first compound 2.53 µM,0.859
same,relative viability,[11]; first compound 8 µM,0.717
same,relative viability,[12]; first compound 0.08 µM,0.675
same,relative viability,[12]; first compound 0.253 µM,0.685
same,relative viability,[12]; first compound 2.53 µM,0.757
same,relative viability,[12]; first compound 8 µM,0.77
same,relative viability,[13]; first compound 0.08 µM,0.635
same,relative viability,[13]; first compound 0.253 µM,0.8
same,relative viability,[13]; first compound 2.53 µM,0.835
same,relative viability,[13]; first compound 8 µM,0.719
same,relative viability,[14]; first compound 0.08 µM,0.4
same,relative viability,[14]; first compound 0.253 µM,0.423
same,relative viability,[14]; first compound 2.53 µM,0.446
same,relative viability,[14]; first compound 8 µM,0.352
